Key:
Brd4-BD2 L387A,M442C = Brd4-BD2 L387A,M442C (Homo sapiens, UniProt O60885, L387A/M442C)
[1] = target: T1, Brd4-BD2 L387A,E438C (BromoCatch) (Homo sapiens, UniProt O60885, E438C/L387A); assay: biochemical
[2] = target: T1, Brd4-BD2 L387A,E438C (BromoCatch); assay: competition FP kinetics (kinact/KI); intact protein MS; DSF ΔTm +[…] °C; streptavidin pull-down; format: binding; set-up: Brd4-BD2; settings: read-out: kinact_KI
[3] = target: T2, Brd4-BD2 L387A,E438C (BromoCatch) (Homo sapiens, UniProt O60885, L387A/E438C); assay: intact protein LC-MS covalent adduct; DSF; format: binding
T2 construct: Brd4-BD2 (351–459)

Compound	intact protein LC-MS covalent adduct; DSF [3]	also measured
C=CC(=O)Nc1ccc(C2=N[C@@H]([C@@H](CC)C(=O)OC)c3nnc(C)n3-c3sc(C)c(C)c32)cc1 [MR116]		intact protein LC-MS covalent adduct; DSF (Brd4-BD2 L387A,M442C): (acrylamide, chloroacetamide, vinyl sulfonamide and epoxide) showed covalent modification of both cysteine-containing mutants; Ki [1]: 6.8 nM
C=CC(=O)Nc1ccc(C2=N[C@@H]([C@@H](CC)C(=O)NCCOCCOCCOCCOCCNC(=O)CCCC[C@@H]3SC[C@@H]4NC(=O)N[C@@H]43)c3nnc(C)n3-c3sc(C)c(C)c32)cc1 [MR169]		kinact/KI [2]: 37000 M⁻¹ s⁻¹
C=CC(=O)Nc1cccc(C2=N[C@@H]([C@@H](CC)C(=O)OC)c3nnc(C)n3-c3sc(C)c(C)c32)c1 [MR119]	Brd4-BD2^L387A,E438C exhibited excellent reactivity towards both meta and para electrophilic ligands	
CC[C@@H](C(=O)OC)[C@@H]1N=C(c2ccc(NC(=O)CCl)cc2)c2c(sc(C)c2C)-n2c(C)nnc21 [MR112]	para chloroacetamide (MR112), vinyl sulfonamide (MR121) and acrylamide (MR116) performed as the best combinations	
CC[C@@H](C(=O)OC)[C@@H]1N=C(c2cccc(NC(=O)CCl)c2)c2c(sc(C)c2C)-n2c(C)nnc21 [MR118]	the chloroacetamides MR112 and MR118 demonstrated a slight improvement in potency	
C=CS(=O)(=O)Nc1ccc(C2=N[C@@H]([C@@H](CC)C(=O)OC)c3nnc(C)n3-c3sc(C)c(C)c32)cc1 [MR121]	vinyl sulfonamide (MR121) and acrylamide (MR116) performed as the best combinations, providing the highest percentage of covalent engagement	

— article PMC13376172, “BromoCatch: a self-labelling tag platform for protein modification and live cell imaging” (Nature Communications, 2026)
